Assay results from PubChem BioAssay (NCI).
Where “and” joins values, the source holds several entries; their conditions need not be identical. Equal values may be shown once.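 Exposure lasted 48 hours, with cells grown in 96-well plates and compounds tested at five concentrations. The concentration for 50% growth inhibition is given as GI50. At the TGI there is no net growth.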

Key:
Assay in all cases: DTP human tumour cell line panel, 48 h
[1] = system: SK-MEL-5 melanoma
[2] = system: NCI-H522 lung
[3] = system: SF-295 CNS
[4] = system: OVCAR-4 ovarian
[5] = system: HS 578T breast
[6] = system: NCI-H23 lung
[7] = system: NCI-H460 lung
[8] = system: SNB-19 CNS
[9] = system: SF-268 CNS
[10] = system: U251 CNS

SMILES	GI50 [1]	TGI [1]	GI50 [2]	TGI [2]	GI50 [3]	TGI [3]	GI50 [4]	TGI [4]	GI50 [5]	TGI [5]	GI50 [6]	TGI [6]	GI50 [7]	TGI [7]	GI50 [8]	TGI [8]	GI50 [9]	TGI [9]	GI50 [10]	TGI [10]
COc1ccc(/C(=C/c2ccc3ccccc3c2)c2nn[nH]n2)cc1OC	4.68 µM	23.8 µM	1.14 µM	35.8 µM	1.51 µM	51.1 µM	7.78 µM	> 100 µM	2.23 µM	53.6 µM	5.29 µM	> 100 µM	2.81 µM	16.3 µM	7.84 µM	> 100 µM	6.55 µM	> 100 µM	4.46 µM	> 100 µM
CS(=O)(=O)O[C@H]1C(=O)N(c2cc3c4ccccc4ccc3c3ccccc23)[C@@H]1c1ccccn1	0.3 µM	3.35 µM	0.573 µM	> 100 µM	0.291 µM	11.8 µM	1.62 µM	> 100 µM	0.428 µM	> 100 µM	0.981 µM	> 100 µM	2.39 µM	> 100 µM	0.749 µM	> 100 µM	0.707 µM	> 100 µM	0.685 µM	> 100 µM
COc1ccc2nc3cc(Cl)ccc3c(NCCNCC(O)CO)c2c1 (configuration not stated)	3.3 µM	11.1 µM	0.984 µM	3.93 µM	2.33 µM	12.3 µM	1.35 µM	9.15 µM	3.75 µM	21.1 µM	1.62 µM	7.87 µM	0.631 µM	3.33 µM	1.29 µM	12.6 µM	1.03 µM	13.1 µM	1.55 µM	10.8 µM
Clc1ccc(-c2nc3c(-c4ccccc4)nc(-c4ccccc4)cn3c2-c2ccc(Cl)cc2)cc1	> 100 µM	> 100 µM	> 100 µM	> 100 µM	> 100 µM	> 100 µM	> 100 µM	> 100 µM	> 100 µM	> 100 µM	> 100 µM	> 100 µM	> 100 µM	> 100 µM	> 100 µM	> 100 µM	> 100 µM	> 100 µM	> 100 µM	> 100 µM
CS(=O)(=O)c1ccc2c(c1)C(=O)c1c-2n(CCCBr)c(=O)c2cc([N+](=O)[O-])ccc12	1.91 µM	15.8 µM	4.87 µM	> 100 µM	2.07 µM	33.5 µM	47.4 µM	> 100 µM	4.98 µM	44.1 µM	7.87 µM	> 100 µM	0.718 µM	> 100 µM	6.03 µM	> 100 µM	9.59 µM	> 100 µM	8.76 µM	> 100 µM
C[C@]12CCCN1CC1=NNC(=O)c3cc(F)cc4[nH]c2c1c34	20.7 µM	53.4 µM	21.9 µM	63.6 µM	16.1 µM	51.1 µM	24.9 µM	> 100 µM	11.8 µM	62.5 µM	16.1 µM	54.6 µM	11.5 µM	> 100 µM	25.1 µM	> 100 µM	19 µM	61.4 µM	14.1 µM	> 100 µM
NC(CP(=O)(O)O)C(=O)O (configuration not stated)	–	> 100 µM	–	> 100 µM	–	> 100 µM	–	> 100 µM	–	> 100 µM	–	> 100 µM	–	> 100 µM	–	> 100 µM	–	> 100 µM	–	> 100 µM
COc1ccc(C2CC(c3ccccc3)=NN2C(=O)c2cc(OC)c(OC)c(OC)c2)cc1O (configuration not stated)	0.338 µM	2.17 µM	0.335 µM	7.03 µM	0.366 µM	> 38.5 µM	0.596 µM	> 100 µM	0.316 µM	1.13 µM	0.743 µM	> 65.8 µM	0.354 µM	12.6 µM	0.645 µM	> 100 µM	0.902 µM	> 39.8 µM	0.383 µM	13.8 µM
[N-]=[N+]=NCCCn1c2c(c3ccc([N+](=O)[O-])cc3c1=O)C(=O)c1cc(I)ccc1-2	3.77 µM	15.5 µM	1.68 µM	12.4 µM	1.54 µM	> 100 µM	60 µM	> 100 µM	28 µM	> 100 µM	5.41 µM	55.7 µM	0.449 µM	11.6 µM	4.62 µM	> 100 µM	2.58 µM	> 100 µM	2.23 µM	30.6 µM
COC(=O)CC1C2(C)C3=C(C)C(c4ccoc4)CC3OC2C2OC(=O)C3(C)C=CC(=O)C1(C)C23 (configuration not stated)	–	3.03 µM	–	3.22 µM	–	13 µM	–	10.1 µM	–	> 96.3 µM	–	3.52 µM	–	3.26 µM	–	7.1 µM	–	7.62 µM	–	2.95 µM
CC(C)(C)[Si](C)(C)OC1[C@@H](O[Si](C)(C)C(C)(C)C)[C@@H](CNC(=O)NC(=O)NC(=O)CCl)O[C@H]1n1cnc2c(NC(=O)Nc3ccccc3)ncnc21 (some centres not stated)	8.21 µM	15 µM	0.282 µM	0.572 µM	4.91 µM	15 µM	3.31 µM	10.5 µM	4.52 µM	20.6 µM	1.57 µM	6.59 µM	2.23 µM	12.1 µM	15.7 µM	48.6 µM	4.51 µM	14 µM	1.56 µM	4.22 µM
COC(=O)[C@H](Cc1ccccc1)NNC(=O)c1csc([C@@H](C[C@H](C(C)C)N(C)C(=O)[C@@H](NC(=O)[C@H]2CCCCN2C)C2CC2)OC(C)=O)n1	–	0.51 µM and 2.26 µM	0.00154 µM and 0.0144 µM	–	–	25 µM and > 100 µM	–	25 µM and > 100 µM	–	> 100 µM	–	25 µM and > 100 µM	–	25 µM and > 100 µM	–	> 100 µM	–	25 µM and > 100 µM	–	25 µM and > 100 µM
Nc1c(C(=O)c2ccc(C#CCN3CCOCC3)cc2)cnn1-c1ccc(F)cc1	> 25 µM	> 25 µM	> 25 µM	> 25 µM	> 25 µM	> 25 µM	> 25 µM	> 25 µM	> 25 µM	> 25 µM	> 25 µM	> 25 µM	> 25 µM	> 25 µM	> 25 µM	> 25 µM	> 25 µM	> 25 µM	> 25 µM	> 25 µM
CCOC(=O)C1=C(C)NC(C)=C(C(=O)OCCNC(=O)c2ccc(N=[N+]=[N-])cc2)C1c1ccccc1C(F)(F)F (configuration not stated)	–	12.7 µM	–	19.3 µM	–	21.5 µM	–	21.5 µM	–	21.5 µM	–	21.5 µM	–	21.5 µM	–	21.5 µM	–	21.5 µM	–	21.5 µM
CC1NC(C(=O)O)Cc2cc(O)c(O)cc21 (configuration not stated)	–	> 100 µM	–	> 100 µM	–	> 100 µM	–	> 100 µM	–	> 100 µM	–	> 100 µM	–	> 100 µM	–	> 100 µM	–	> 100 µM	–	> 100 µM
COc1cc(-c2cc(-c3cccs3)c(C#N)c(N3CCOCC3)n2)cc(OC)c1OC	5.71 µM	> 100 µM	10.3 µM	> 100 µM	2.87 µM	9.01 µM	> 44.6 µM	> 100 µM	7.27 µM	> 100 µM	> 52.1 µM	> 100 µM	3.06 µM	> 28.5 µM	> 76.1 µM	> 100 µM	> 67.6 µM	> 100 µM	4.94 µM	> 100 µM
CC(C)n1nc(C#Cc2cccc(O)c2)c2c(N)ncnc21	1.72 µM and 0.887 µM	6.39 µM and 2.67 µM	0.627 µM	5.33 µM and 4.55 µM	3.16 µM and 1.17 µM	12.2 µM and 3.58 µM	1.34 µM and 1.74 µM	7.4 µM and 6.17 µM	0.583 µM and 0.17 µM	1.88 µM and 0.632 µM	1.23 µM and 0.992 µM	6.75 µM and 5.4 µM	1.34 µM and 1.13 µM	9.9 µM and 13.1 µM	3.02 µM and 2.16 µM	21.4 µM and 14.4 µM	1.37 µM and 1.09 µM	6.71 µM and 6.05 µM	2.83 µM and 2.95 µM	50 µM and 12.8 µM
COc1ccc(N=N/C(=N\NC(=O)c2cc(Br)ccc2O)c2ccc(N(CCC#N)CCC#N)cc2OC)cc1	56.1 µg/mL	> 150 µg/mL	40.1 µg/mL	141 µg/mL	73.8 µg/mL	> 150 µg/mL	28.5 µg/mL	76 µg/mL	82.5 µg/mL	> 150 µg/mL	110 µg/mL	> 150 µg/mL	33.5 µg/mL	109 µg/mL	> 150 µg/mL	> 150 µg/mL	30.1 µg/mL	> 150 µg/mL	> 150 µg/mL	> 150 µg/mL
Nc1nc(=S)c2ncn(C3OC(CO)C(O)C3O)c2[nH]1 (configuration not stated)	2.41 µM	10.8 µM	1.8 µM	> 100 µM	0.531 µM	> 100 µM	1.86 µM	> 100 µM	2.27 µM	> 86.1 µM	0.776 µM	> 100 µM	0.571 µM	12.2 µM	33.1 µM	> 100 µM	0.755 µM	> 100 µM	6.5 µM	> 100 µM
Cc1ccc(/C=C(/C#N)n2nnc3ncccc32)cc1	2.89 µM	12.8 µM	0.255 µM	0.878 µM	3.77 µM	16.2 µM	2.14 µM	15.8 µM	2.95 µM	> 100 µM	3.09 µM	17.9 µM	2.69 µM	7.76 µM	3.43 µM	16.8 µM	3.08 µM	15.1 µM	3.41 µM	14.1 µM
CC(=O)NC(CS)C(=O)O (configuration not stated)	> 100 µM	> 100 µM and 66800 µM	> 100 µM	> 100 µM and 46300 µM	> 100 µM	> 100 µM and 57700 µM	> 100 µM	> 100 µM	> 100 µM	> 100 µM and 87200 µM	> 100 µM	> 100 µM and 62700 µM	–	62300 µM	> 100 µM	> 100 µM	> 100 µM	> 100 µM and 63800 µM	> 100 µM	> 100 µM
Cc1cc2c(C(=O)NCC#N)cccc2n1-c1nc2c(c(NCc3ccccc3)n1)CCCC2	0.118 µM	0.245 µM	0.242 µM	0.842 µM	0.191 µM	0.444 µM	0.322 µM	1.76 µM	0.386 µM	47.5 µM	0.285 µM	1.19 µM	0.261 µM	0.686 µM	0.499 µM	2.91 µM	0.34 µM	1.35 µM	0.227 µM	0.521 µM
CCC1=C[C@@H]2CN(C1)Cc1c([nH]c3ccccc13)[C@@](C(=O)OC)(c1cc3c(cc1OC)N(C)[C@H]1[C@@](O)(C(=O)OC)[C@H](OC(C)=O)[C@]4(CC)C=CCN5CC[C@]31[C@@H]54)C2	< 0.01 µM	0.119 µM	< 0.0227 µM	> 31.8 µM	< 0.01 µM	–	< 0.01 µM	21 µM	< 0.01 µM	9.59 µM	< 0.0187 µM	41.4 µM	< 0.01 µM	0.444 µM	< 0.01 µM	18.9 µM	< 0.01 µM	14.2 µM	< 0.01 µM	8.42 µM
O=C(Nc1ccc(Oc2ccc(NC(=O)Nc3ccccc3Cl)cc2)cc1)Nc1ccccc1Cl	–	> 100 µM	7.91 µM	42.6 µM	6.81 µM	33.9 µM	2.71 µM	24.4 µM	17.8 µM	> 100 µM	3.61 µM	18.5 µM	2.49 µM	> 100 µM	17 µM	43.8 µM	8.11 µM	55.1 µM	1.71 µM	20.5 µM
CCSc1nc(NC(C)c2ccccc2)c2cnn(CO)c2n1 (configuration not stated)	3.18 µM	25.9 µM	14.7 µM	> 100 µM	35.2 µM	> 100 µM	86.4 µM	> 100 µM	8.09 µM	99.4 µM	18.4 µM	> 100 µM	32.8 µM	> 100 µM	> 100 µM	> 100 µM	> 100 µM	> 100 µM	74.8 µM	> 100 µM
CCCCCCCCCCCCNC(=O)N[C@H](C(=O)N[C@H]1/C=C/CCNC(=O)/C=C/[C@H](C)NC1=O)C(C)C	0.163 µM	0.39 µM	0.0244 µM	0.0647 µM	0.239 µM	1.45 µM	0.104 µM	2.12 µM	0.333 µM	24 µM	0.0513 µM	0.612 µM	0.0416 µM	0.288 µM	0.0647 µM	15 µM	0.0543 µM	1.04 µM	0.0412 µM	0.209 µM
